Measured values from patent publication US20230355622A1, “METHODS OF CHEMOVACCINATION AGAINST PLASMODIUM INFECTIONS” (Merck Sharp & Dohme LLC, priority 2020, published 2023).

Assays:
[1] = system: PbmCherryLuci sporozoites; test: Immunity after chemovaccination with increasing numbers of sporozoites, BALB/c mice (FIG. 5-7); assay type: in vivo, Plasmodium berghei
Method: To investigate how many sporozoites are required to develop immunity, female BALB/c mice (n=3/group) were infected intravenously (i.v.) with increasing numbers of PbmCherryLuci sporozoites and cured with 2×100 mg/kg doses of Example 1A. Three months later, the chemovaccinated mice were challenged with 10 PbmCherryLuci infected mosquito bites. […] Twelve months later, the chemovaccinated mice were challenged with 10 PbmCherryLuci infected mosquito bites.

[2] = system: P. falciparum salivary gland sporozoites; test: Chemoprophylaxis of humanised (FRG) mice infected with P. falciparum sporozoites (FIG. 10); assay type: in vivo; conditions: FRG mouse with human hepatocytes, 300,000 sporozoites i.v.; four oral treatments 100 mg/kg at day 5, 5.5, 6, 6.5
Method: Four immunocompromised mice engrafted with human hepatocytes (FRG mice, Yecuris, OR, USA) were each infected intravenously with 300,000 freshly dissected P. falciparum salivary gland sporozoites. Three mice received no treatment, while one mouse received four oral treatments with 100 mg/kg Example 1A during P. falciparum liver stage development (at day 5, day 5.5, day 6 and day 6.5 post infection). […] On day 7 post infection all mice were bled, and the blood cultured under standard culture conditions at 4% hematocrit with 1% oxygen. Fresh hematocrit was added to the cultures each week to provide fresh host cells for infection, and cultures were analysed for the presence of blood parasites 2-3 times per week by inspection of Giemsa-stained thin blood smears.

PMX = PMX (Plasmodium falciparum, UniProt Q8IAS0); conditions: P. falciparum parasites incubated with compound; SERA5 120 kDa, processed by SUB1
Description: SERA5 is a 120 kDa protein required for merozoite egress and is processed by subtilisin-like protease subtilisin 1 (SUB1) to release a soluble polypeptide of approximately 50 kDa (Pino, P., Caldelari, R., Mukherjee, B., Vahokoski, J., Klages, N., Maco, B., et al. (2017). A multistage antimalarial targets the plasmepsins IX and X essential for invasion and egress. Science 358, 522-528). […] SERA5 was included as a control in all subsequent experiments as a proxy for PMX-mediated activation of SUB1.

PMX, sequence (Q8IAS0 222-573): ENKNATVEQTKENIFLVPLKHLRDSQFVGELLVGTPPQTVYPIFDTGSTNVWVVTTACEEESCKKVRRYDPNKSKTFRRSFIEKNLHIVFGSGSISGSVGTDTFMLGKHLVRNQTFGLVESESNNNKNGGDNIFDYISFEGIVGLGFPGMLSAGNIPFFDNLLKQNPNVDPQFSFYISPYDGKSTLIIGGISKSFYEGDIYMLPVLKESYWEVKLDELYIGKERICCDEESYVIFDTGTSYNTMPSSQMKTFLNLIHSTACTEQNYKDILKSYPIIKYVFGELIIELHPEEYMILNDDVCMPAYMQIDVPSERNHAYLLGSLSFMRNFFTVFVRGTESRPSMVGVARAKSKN

## CCC1(CC)CC(=O)N(C2CCOc3ccc(C(=O)N[C@H]4CC(C)(C)Oc5ccccc54)cc32)C(=N)N1 (stereo partly drawn) [Example 1A, 4-(4,4-diethyl-2-imino-6-oxotetrahydropyrimidin-1(2H)-yl)-N—((S)-2,2-dimethylchroman-4-yl)chroman-6-carboxamide]
[1]; BALB/c n=3/group, immunized with 500 sporozoites i.v., 2x100 mg/kg, 3-month challenge, 10 mosquito bites
  mice with sterile protection from blood stage malaria infection: 1/3
[1]; challenge at 12 months (FIG. 7)
  sterile protection from blood stage malaria infection: all mice showed sterile protection
[1]; immunized with 500 sporozoites i.v., 2x100 mg/kg, 3-month challenge
  mice that developed malaria symptoms but showed partial immunity: 2/3
[1]; immunized with 1,000 sporozoites i.v., 2x100 mg/kg, 3-month challenge
  sterile protection from blood stage malaria infection: showed sterile protection from blood stage malaria infection
[1]; immunized with 40,000 sporozoites i.v., 2x100 mg/kg, 3-month challenge
  sterile protection from blood stage malaria infection: showed sterile protection from blood stage malaria infection
[1]; mice immune at 3 months, re-challenged at 6 and 12 months post initial immunization
  immunity on re-challenge: completely immune
[2]
  blood parasites in culture of blood taken day 7 post infection: remained negative for blood parasites over an eight-week observation period
PMX
  SERA5 processing: accumulation of unprocessed SERA5 at 120 kDa
